According to EP0192976A1, “Compounds having antihyperlipemic activity, processes for the preparation thereof and pharmaceutical compositions containing them” (BOEHRINGER BIOCHEMIA ROBIN S.p.A., priority 1985, dated 1986):
Where two headings read alike, the source gives them in different places.

What was measured:
[1] = system: thrombosis induced by the administration of arachidonic acid, as well as colla- gene and adrenalin; assay: Mouse antithrombotic assay (di Minno and Silver); format: in vivo; settings: orally administered at doses from 100 to 250 mg/kg; thrombosis induced by arachidonic acid, and by collagen and adrenalin
Text: Exper. Therap. 225, 57 (1983).

[2] = system: hypercholesterolemic animals (Nath diet); assay: Hypocholesterolemic/hypotriglyceridemic activity in hypercholesterolemic rats (Nath diet); format: in vivo, Male Sprague-Dawley rats; settings: oral
Experimental: (§1) The single compounds were administered orally at single equimolecular gradually increasing doses, in order to comparatively evaluate their hypocholesterolemic and hypotriglyceridemic activities. Normolipidemic, and hypercholesterolemic and hypertriglyceridemic rats, following to administration of diets respectively enriched in cholesterol and cholic acid (Nath diet) or 79.5% fructose, were used.
(§2) Male Sprague-Dawley rats of 180-200 g body weight were used. The compounds under test were administered as 1% tylose suspension, by means of gastric probe, 10 animals per dose in comparison with controls, treated with the sole vehicle.
Four dose levels: 1, 2, 4, 8 10^-3 mol/kg were used for each compound under test. The body growth and liver weight were evaluated.
(§3) In the serum the following values were determined: • a) total cholesterol, by enzymatic method; • b) HDL cholesterol, by enzymatic method, after precipitation of the other lipoproteins by addition of phospho- tungstic acid; • c) triglycerides by enzymatic method, i.e. by means of enzymatic hydrolysis and dosage of the formed glycerol.
(§4) The dosage of the liver triglycerides has been carried out by enzymatic method on the evaporated liver extract with chloroform:methanol 2:1.
(§5) The results were evaluated and expressed as % variation with respect to the control groups.

[3] = system: fructose induced hypertriglyceridemia; assay: Fructose induced hypertriglyceridemia; format: in vivo, Male Sprague-Dawley rats; settings: fructose and Triton induced hypertriglyceridemias (test not given)
Experimental: as §1, §2, §3, §4, §5
The hypotriglyceridemyzing activity of the compounds of the invention, as already mentioned, was evaluated in fructose and Triton induced hypertriglyceridemias, in comparison with the following standard: 1,10-bisL2-(hydroxyethyl)thio]decane (3) and its nicotinate (4) and nicoti- noyloxymethylcarbonyloxy ester (5).
All the compounds were administered 'at equimolecular gradual dosages.

Normolipolysis = assay: Antilipolytic activity, normolipolysis (free fatty acids); format: in vivo; settings: for antilipolytic activity: oral, under normal feeding conditions and in lipolysis induced by fasting or adrenalin
Experimental: (§6) The compounds were administered orally. […] The results are expressed as µEq/1 of free fatty acids.
10 Animals per group - Normally feeded for 7 days, then administered with the test compounds.

[4] = system: Fasting induced lipolysis; assay: Antilipolytic activity, fasting induced lipolysis (free fatty acids); format: in vivo; settings: fasted for 24 hours
Experimental: as §6
10 Animals per group - Normally feeded for 6 days, then fasted for 24 hours and orally administered with the test compounds.

[5] = system: Adrenalin induced lypolysis; assay: Antilipolytic activity, adrenalin induced lipolysis (free fatty acids); format: in vivo; settings: 1·10^-3 mol/kg oral
Experimental: as §6
10 Animals per group - Feeded and housed for one weed, then administered orally and stimulated with adrenalin 1 mg/kg i.p., respectively 30 and 60 min. before killing.

ear marginal veins [6] = settings: guinea pig, in vivo
Text: (§7) Such a side-effect may be experimented on male albino Guinea pigs, weighing 300-400 g, normally feeded and housed in silent room, by observing the vasodilation of ear marginal veins, after administration of the test compounds.

ear marginal veins [7] = assay: Vasodilation of ear marginal veins (flushing side-effect); settings: Guinea pigs, 1·10^-3 mol/kg
Text: as §7

[8] = 2 hours after 1·10^-3 mol/kg oral single dose, normally fed
[9] = 4 hours after 1·10^-3 mol/kg oral single dose, normally fed
[10] = 8 hours after 1·10^-3 mol/kg oral single dose, normally fed
[11] = Basal, normally fed 7 days, group later given 1·10^-3 mol/kg oral single dose
[12] = 2 hours after 1·10^-3 mol/kg oral single dose
[13] = 4 hours after 1·10^-3 mol/kg oral single dose
[14] = 8 hours after 1·10^-3 mol/kg oral single dose
[15] = 30', adrenalin 1 mg/kg i.p. 30 min before killing
[16] = 60', adrenalin 1 mg/kg i.p. 60 min before killing
[17] = 4·10^-3 mol/kg, % variation versus controls

Vasodilating effect: Beginning (ear marginal veins [6])	Vasodilating effect: Beginning of disappearance (ear marginal veins [6])	Vasodilating effect: Maximal effect (ear marginal veins [6])	Structure (SMILES)	protection from thrombosis [1]	free fatty acids (Normolipolysis; [8]) [µEq/1]	free fatty acids (Normolipolysis; [9]) [µEq/1]	free fatty acids (Normolipolysis; [10]) [µEq/1]	free fatty acids (Normolipolysis; [11]) [µEq/1]	free fatty acids [4, 12] [µEq/1]	free fatty acids [4, 13] [µEq/1]	free fatty acids [4, 14] [µEq/1]	FFA [5, 15] [μEq/l]	FFA [5, 16] [μEq/l]	also measured
–	–	–	O=C(CNC(=O)c1cncc(Br)c1)OCCSCCCCCCCCCCSCCOC(=O)CNC(=O)c1cncc(Br)c1 [Example 5, 1,10-Bis[2-(5-bromn-nicotinoylglicyl)ethyl-thio]decane]	protect the mouse from thrombosis	–	–	–	–	–	–	–	–	–	–
10'	48'	25'	O=C(OCCSCCCCCCCCCCSCCOC(=O)c1cccnc1)c1cccnc1 [Compound 4]	–	120	155	450	230	250	240	970	295	625	preliminar increase of the total cholesterol ([2]; 2·10^-3 mol/kg, versus controls): 10%; HDL concentration ([2]; all the assayed doses, the decrease lessened with increasing dose): marked decrease; triglyceride hematic concentration ([2]; all the tested doses, tendency to decrease with increasing dose): always higher than that in the control animals; decrease of the total cholesterol versus controls ([2]; doses above 2·10^-3 mol/kg, did not vary increasing the dose): 50%; liver weight ([2]; over the tested doses): gradual increase; triglyceride hepatic concentration, increases [3]: 40-50%
–	–	–	CC(NC(=O)c1cccnc1)C(=O)OCCSCCCCCCCCCCSCCOC(=O)C(C)NC(=O)c1cccnc1 (centres unmarked) [Example 7, 1,10-bis[2-(nicotinoyialanylethyl)thio]decane]	protect the mouse from thrombosis	–	–	–	–	–	–	–	–	–	–
–	–	–	O=C(O)c1cccnc1 [Compound 2, nicotinic acid]	–	110	160	560	260	180	190	950	340	650	antilipolytic activity (Normolipolysis): proved to have antilipolytic activity; Vasodilating effect: Beginning (ear marginal veins [7]): 3'; Vasodilating effect: Beginning of disappearance (ear marginal veins [7]): 20'; Vasodilating effect: Maximal effect (ear marginal veins [7]): 6'
–	–	–	CCC(C)C(NC(=O)c1cccnc1)C(=O)OCCSCCCCCCCCCCSCCOC(=O)C(NC(=O)c1cccnc1)C(C)CC (centres unmarked)	protect the mouse from thrombosis	–	–	–	–	–	–	–	–	–	–
–	–	–	Cc1cnc(C(=O)NCC(=O)OCCSCCCCCCCCCCSCCOC(=O)CNC(=O)c2cnc(C)cn2)cn1 [1,10-bis[2-(5-methylpyrazinoylglycyl)ethylthio]decane]	protect the mouse from thrombosis	–	–	–	–	–	–	–	–	–	–
==	==	==	O=C(CNC(=O)c1cccnc1)OCCSCCCCCCCCCCSCCOC(=O)CNC(=O)c1cccnc1 [Compound 1]	protect the mouse from thrombosis	200	225	270	230	480	430	400	450	400	liver weight ([2]; 4·10^-3 mol/kg): no substantial changes; decrease in hematic triglycerides [2, 17]: 4%; decrease in hepatic triglycerides [2, 17]: 48%; decrease of total plasmatic cholesterol [2, 17]: 37%; increase in HDL cholesterol [2, 17]: 7%; triglyceride hepatic concentration, percent variations [3]: -10 to +10%
–	–	–	OCCSCCCCCCCCCCSCCO [Compound 3, 1,10-bis[2-(hydroxyethyl)thio]decane]	–	–	–	–	–	–	–	–	–	–	triglyceride hepatic concentration, increases [3]: 40-50%
13'	51'	30'	O=C(COC(=O)c1cccnc1)OCCSCCCCCCCCCCSCCOC(=O)COC(=O)c1cccnc1 [Compound 5, 1,10-bis[2-(nicotino-yloxymethylcarbonyloxy)ethylthio]decane]	–	120	170	260	240	207	228	744	270	610	concentration of hepatic triglycerides ([2]; 4·10^-3 mol/kg): increase; decrease in hematic HDL cholesterol [2, 17]: 6%; decrease in hematic triglycerides [2, 17]: 34%; decrease of total plasmatic cholesterol [2, 17]: 30%; triglyceride hepatic concentration, percent variations [3]: -10 to +10%; antilipolytic activity (Normolipolysis): proved to have antilipolytic activity
–	–	–	O=C(NC(Cc1ccccc1)C(=O)OCCSCCCCCCCCCCSCCOC(=O)C(Cc1ccccc1)NC(=O)c1cccnc1)c1cccnc1 (centres unmarked) [1,10-bis[2-(nicotinoylphenylalanyl)ethylthio]decane]	protect the mouse from thrombosis	–	–	–	–	–	–	–	–	–	–
